“Also recorded” adds a separate entry of the source. Read-outs that look alike come from different tables or passages of the source.
Legend:
hVDAC1 [1] = target: T1, hVDAC1 (Homo sapiens, UniProt P21796); test: MST binding check; details: 100 nM hVDAC1, highest soluble ligand concentration
hVDAC1 [2] = target: T1, hVDAC1; test: NanoDSF thermal shift; assay type: binding; details: hVDAC1 in LDAO; compared to hVDAC1 alone at 0% or 5% DMSO
hVDAC1 [3] = target: T1, hVDAC1; test: MST dose-response experiment; assay type: binding
VDAC1 = details: PLB, cited from earlier work
rVDAC1 = details: cited from earlier work
hVDAC1 [4] = target: T1, hVDAC1; details: read-out: Published Kd; cited from earlier work
[5] = MST dose-response, 100 nM hVDAC1, 16 concentrations

T1 sequence (P21796 whole entry): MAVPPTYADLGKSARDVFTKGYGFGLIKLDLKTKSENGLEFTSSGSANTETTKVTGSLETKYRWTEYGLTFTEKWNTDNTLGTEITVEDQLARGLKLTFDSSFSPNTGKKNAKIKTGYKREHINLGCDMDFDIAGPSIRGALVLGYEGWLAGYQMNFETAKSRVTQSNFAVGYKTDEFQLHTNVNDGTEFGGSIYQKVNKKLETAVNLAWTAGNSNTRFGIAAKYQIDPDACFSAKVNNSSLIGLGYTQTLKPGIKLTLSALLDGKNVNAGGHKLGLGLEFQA

SMILES | MST Binding Check (hVDAC1 [1]) | Tm shift in NanoDSF (direction / significance, in words) (hVDAC1 [2]) | Kd (hVDAC1 [3]) [µM] | other results
CC(=O)Oc1ccccc1C(=O)O [Aspirin] | Positive | – | – | MST Binding Check (hVDAC1 [1]; listed as aspirin): validated by binding check
C=C(C)[C@@H]1CCC(C)=C[C@H]1c1c(O)cc(CCCCC)cc1O [Cannabidiol] | Positive | increase the Tm; also recorded: positive | 6 ± 2 | Kd (hVDAC1 [3]; [5]): < 10 µM; Effect(s) on activity (VDAC1; MST): Reduces conductance Increases mitochondrial Ca^2+; Kd (rVDAC1; read-out: Published Kd, listed as cannabidiol): 11 µM; Kd (rVDAC1; read-out: Published Kd): 11.2 µM
O.Oc1cc(O)c2c(c1)O[C@H](c1ccc(O)c(O)c1)[C@@H](O)C2 [Catechin] | – | increase the Tm; also recorded: significant Tm shift | – | –
COc1cc(/C=C/C(=O)CC(=O)/C=C/c2ccc(O)c(OC)c2)ccc1O [Curcumin] | Positive | negative Tm shift | 6 ± 1 | Kd (hVDAC1 [3]; [5]): < 10 µM; Effect(s) on activity (VDAC1): Reduces conductance by promoting closed state(s)
C(=NC1CCCCC1)=NC1CCCCC1 [DCCD] | Positive | increase the Tm | – | Effect(s) on activity (VDAC1; NMR, [14C] DCCD-labelled VDAC1): Reduces conductance Inhibits HK-VDAC1 binding
O=C(O)c1ccccc1Nc1ccccc1 [DPC] | validated by binding check; also recorded: Positive | negative Tm shift | – | Effect(s) on activity (VDAC1; MST): Reduces conductance Prevents oligomerization; Kd (rVDAC1; read-out: Published Kd): 150 µM
Cc1cc(O)c2c(c1)C(=O)c1cc(O)cc(O)c1C2=O [Emodin] | Positive | not been confirmed as VDAC1 ligands; also recorded: no significant changes in Tm | 10 ± 5 | MST Binding Check (hVDAC1 [1]; listed as emodin): binding was shown
CNCCC(Oc1ccc(C(F)(F)F)cc1)c1ccccc1 (centres unmarked) [Fluoxetine] | – | – | – | Effect(s) on activity (VDAC1): Reduces conductance Prevents Cyto C release
CCC(C)n1ncn(-c2ccc(N3CCN(c4ccc(OCC5COC(Cn6cncn6)(c6ccc(Cl)cc6Cl)O5)cc4)CC3)cc2)c1=O (centres unmarked) [Itraconazole] | Positive | – | 5 ± 2 | Kd (rVDAC1; read-out: Published Kd): 120 µM; MST Binding Check (hVDAC1 [1]; listed as itraconazole): binding was shown
CN(C)C(=N)N=C(N)N [Metformin] | Positive | not been confirmed as VDAC1 ligands | – | Effect(s) on activity (VDAC1; MST): Reduces conductance No binding observed by MST; MST Binding Check (hVDAC1 [1]; listed as metformin): validated by binding check
NC(=O)C1=CN([C@@H]2O[C@H](COP(=O)(O)OP(=O)(O)OC[C@H]3O[C@@H](n4cnc5c(N)ncnc54)[C@H](O)[C@@H]3O)[C@@H](O)[C@H]2O)C=CC1 [NADH] | validated by binding check; also recorded: Positive | not been confirmed as VDAC1 ligands | – | Effect(s) on activity (VDAC1; NMR): Affects gating without reducing the conductance Sterically closes the channel; Kd (hVDAC1 [4]): 9000 µM
CC(C)CCC[C@@H](C)[C@H]1CC[C@H]2[C@@H]3CCC4=CC(=NO)CC[C@]4(C)[C@H]3CC[C@]12C [Olesoxime] | Positive | negative Tm shift | – | Effect(s) on activity (VDAC1): Reduces conductance; MST Binding Check (hVDAC1 [1]; listed as olesoxime): validated by binding check
CC(C)c1cccc(C(C)C)c1O [Propofol] | Positive | increase the Tm | > 650 | Effect(s) on activity (VDAC1): Promotes closure when a negative voltage is applied No effects on open state conductance
C=C[C@H]1C[N@@]2CC[C@H]1C[C@@H]2[C@@H](O)c1ccnc2ccc(OC)cc12 [Quinidine] | Positive | negative Tm shift | – | MST Binding Check (hVDAC1 [1]; listed as quinidine): validated by binding check

— article PMC9858421 (Journal of Enzyme Inhibition and Medicinal Chemistry, 2023)
